From patent US20230242526A1 (Zentaur Therapeutics International Limited, priority 2020, published 2023)

Tests used:
[1] = tested on: human breast squamous HCC1806 cell line; assay: CyQUANT Direct cell proliferation assay, HCC1806; type: cell-based; details: HCC1806, 168 h, 7 days
Excerpt: The human ovarian carcinoma OVCAR3 cell line (ATCC HTB-161™) or human breast squamous HCC1806 cell line (ATCC CRL 2335) were obtained from American Type Culture Collection (ATCC), and maintained in culture media according to the supplier's specification.
The CyQUANT® Direct Cell Proliferation Assay Kit (Invitrogen™, catalog No. G35012) was utilized to test the inhibitory activities of the CDK2 inhibitors described in this disclosure against OVCAR3 or HCC1806 tumor cells.
CyQUANT® Direct Cell Proliferation Assay: The spent medium from the purchased tumor cell culture plate was removed and the tumor cells were washed with PBS buffer twice. Trypsin (VWR catalog No. 0458-25G) was added to digest the tumor cells until tumor cells appeared round shaped and to dissociate adherent cells from the plate wall in which they are being cultured. Then RPMI-1640 media (HCC1806, Gibco™ catalog No, A10491-01) with 10% fetal bovine serum (FBS) (Hyclone™ catalog No. SV30160.03), or RPMI-1640 media (OVCAR-3, Gibco™ catalog No. 10370-021) with 20% FBS and 0.01 mg/mL insulin was added to stop the trypsin digestion reaction. The tumor cells were lightly agitated with a liquid transfer pipette to cause tumor cells suspended in the culture media. The cells were counted. The complete medium was used to prepare tumor cell suspension.
OVCAR3 or HCC1806 cells were seeded at 40 μL/well in 384-well plates in growth media containing FBS and cultured 24 hours in the incubator at 37° C., 5% CO2. […] Compound solutions were added by Agilent Bravo liquid handler. […] The control wells contained the growth medium having 0.1% DMSO. Cells were incubated at 37° C., 5% CO2 for 7 days.
CYQUANT Direct Cell Proliferation Assay (Molecular Probes, Eugene, Oreg.) was then performed following manufacturer's instructions to prepare the detection reagents. 50 μL of detection reagent was aliquot and added to each well and the cells were incubated at 37° C. for 1 hr.
The cell culture plates were placed on TECAN M1000 microplate reader to detect the fluorescence intensity at 508 nm excitation and 527 nm emission wavelengths. Graphpad Prism 6.0 software was used for data processing, preparing cell growth curve, calculating percentage inhibition on cell growth. IC50 values were calculated by concentration-response curve fitting utilizing a four-parameter analytical method using GraphPad Prism software.

[2] = Body weight in the HCC1806 xenograft study; type: in vivo, BALB/c nude mice; details: 30 mg/kg P.O. BID; for Body weight D0 / Body weight D3 / Body weight D7 / Body weight D10 / Body weight D14 / Body weight D17 / Body weight D21: group mean; for Body weight D0: day 0; for Body weight D3: day 3; for Body weight D7: day 7; for Body weight D10: day 10; for Body weight D14: day 14; for Body weight D17: day 17; for Body weight D21: day 21
Experimental: (§1) When the average tumor volume reached 80-120 mm^3, 42 tumor-bearing mice were randomized into 7 groups (6 mice per group) according to tumor volume. The grouping day was defined as Day 0. Treatment was applied immediately after grouping animals on the same day.
(§2) The body weight of the testing animals were measured twice a week after grouping. Tumor volumes by the length and width of the tumor were measured by electric calipers and the tumor volume (V) was calculated as follows: V=(length×width^2)/2. The individual relative tumor volume (RTV) was calculated as follows: RTV=Vt/V0, where Vt was the volume on each day, and V0 was the volume at the beginning of the treatment.
(§3) Results were expressed as mean±S.E.M. Comparisons between two groups were made by corresponding test, p<0.05 were considered to be significant.

[3] = in vitro; details: human, microsomes, pH 7.4, t1/2 human
Experimental: (§4) Human liver microsomes (cat. No. 452161), mouse liver microsomes (cat. No. 452701), were purchased from Corning.
(§5) Samples were analyzed using LC-MS/MS using a SCIEX API 4000 mass spectrometer coupled with Agilent HPLC analytical system. After separation on a ZORBAX XDB-C18 column (5 μm, 50×2.1 mm, column No. 50-282) using an acetonitrile-water gradient system, peaks were analyzed by mass spectroscopy (MS) using ESI ionization in Q1 and Q3 scan mode.
(§6) The LC and MS are all controlled by Analyst software.
(§7) The liver microsomes were incubated with 1.0 μM of the testing compound at 37° C. The incubation mixture contained 100 mM PBS buffer (pH=7.4), 3 mM MgCl2 and 1 mM NADPH. The concentration of liver microsome in the incubation mixture was 0.5 mg/mL for testing compound, and 0.2 mg/mL for MDZ and the total volume is 0.2 mL. […] Aliquots were withdrawn at time points of 0 min, 5 min and 20 min for MDZ. The reactions were terminated by transferring the aliquots to a methanol solution containing the internal standard […] for analytical quantification. The quenched samples were analyzed by LC-MS/MS. The incubations were carried out in duplicates. The metabolic stability of the testing compounds by the liver microsomes of human and mice is expressed as elimination half-life (t1/2). The results are shown as the means of duplicate determinations±SD.

[4] = tested on: HCC1806 s.c. xenografts; assay: HCC1806 s.c. breast cancer xenograft efficacy (tumor volume, relative tumor volume, tumor weight, TGI); type: in vivo, BALB/c nude mice; details: 30 mg/kg P.O. BID; for Tumor Growth Inhibition D3 / Tumor Growth Inhibition D7 / Tumor Growth Inhibition D10 / Tumor Growth Inhibition D14 / Tumor Growth Inhibition D17 / Tumor Growth Inhibition D21: vs control vehicle; for Tumor Growth Inhibition D3 / Tumor volume D3: day 3; for Tumor Growth Inhibition D7 / Tumor volume D7: day 7; for Tumor Growth Inhibition D10 / Tumor volume D10: day 10; for Tumor Growth Inhibition D14 / Tumor volume D14: day 14; for Tumor Growth Inhibition D17 / Tumor volume D17: day 17; for Tumor Growth Inhibition D21 / Tumor volume D21: day 21; for Tumor volume D0 / Tumor volume D3 / Tumor volume D7 / Tumor volume D10 / Tumor volume D14 / Tumor volume D17 / Tumor volume D21 / Tumor weight: group mean; for Tumor volume D0: day 0; for Tumor weight: end of the study (Day 21)
Experimental: The in vivo potency of anti-tumor activities of Comp. 4, Comp. 37, Comp. 5, Comp. 28, Comp. 163, and Comp. 164 have been evaluated on the growth of HCC1806 s.c. xenografts in BALB/c nude mice.
The testing compounds Comp. 4, Comp. 37, Comp. 5, Comp. 28, Comp. 163, and Comp. 164 were prepared according the synthetic routes set forth in the above Examples. The testing formulations for compounds Comp. 4, Comp. 37, Comp. 5, Comp. 28, Comp. 163, and Comp. 164 were prepared as liquid formulation in a liquid vehicle containing 0.1% Tween-80 (purchased form Sinopharm Chemical Reagent Co., Ltd, Lot No. 20190322), 0.5% methyl cellulose (purchased from SIGMA, Lot No. SLBR8963V) in water.
A total of 42+8 female BALB/c nude mice were ordered from Shanghai LC Laboratory Animal Co. Ltd. The animals were specific pathogen free and approximately 4-5 weeks old upon arrival at PharmaLegacy Laboratories.
HCC1806 cell cultures were maintained at 37° C. under 5% CO2 in RPMI-1640 medium supplemented with 10% FBS and were subsequently cultured within 10 passages before inoculated into the mice.
as §1, §2
Tumors were collected at the end of the study (Day 21), the mice were sacrificed. Tumor was collected, weighed, photographed.
as §3

[5] = in vitro; details: mouse, microsomes, pH 7.4, t1/2 mouse
Experimental: as §4, §5, §6, §7

Row | Compound | IC50 [1] | Body weight D0 [2] | Body weight D3 [2] | Body weight D7 [2] | Body weight D10 [2] | Body weight D14 [2] | Body weight D17 [2] | Body weight D21 [2] | half-life at 1 μM [3] | Tumor Growth Inhibition D3 [4] | Tumor Growth Inhibition D7 [4] | Tumor Growth Inhibition D10 [4] | Tumor Growth Inhibition D14 [4] | Tumor Growth Inhibition D17 [4] | Tumor Growth Inhibition D21 [4] | Tumor volume D0 [4] | Tumor volume D3 [4] | Tumor volume D7 [4] | Tumor volume D10 [4] | Tumor volume D14 [4] | other results
1 | Cc1cc2cnc(NC3CCN(S(C)(=O)=O)CC3)nc2n([C@@H]2CCC[C@@]2(C)O)c1=O [Comp. 4, (−)-8-(2-hydroxy-2-methylcyclopentyl)-6-methyl-2-((1-(methylsulfonyl)piperidin-4-yl)amino)pyrido[2,3-d]pyrimidin-7(8H)-one, reference compound] | 41.5 nM | 18.11 g | 17.90 g | 18.56 g | 19.59 g | 19.85 g | 20.49 g | 20.80 g | 7.7 h | 30.25% | 23.11% | −1.66% | 6.35% | 9.13% | 6.55% | 112.95 mm^3 | 241.73 mm^3 | 506.86 mm^3 | 1030.80 mm^3 | 1374.19 mm^3 | body weight compared with G1 vehicle [2]: significant higher on day 21; Tumor volume D17 [4]: 1757.63 mm^3; Tumor volume D21 [4]: 2149.25 mm^3; Tumor weight [4]: 3.63 g; half-life at 1 μM [5]: 0.275 h
2 | [2H]C([2H])([2H])c1cc2cnc(NC3CCN(S(C)(=O)=O)CC3)nc2n([C@@H]2CCC[C@@]2(C)O)c1=O [Comp. 37, (−)-8-((1R,2R)-2-hydroxy-2-methylcyclopentyl)-6-(methyl-d3)-2-((1-(methylsulfonyl)piperidin-4-yl)amino)pyrido[2,3-d]pyrimidin-7(8H)-one] | 35 nM | 18.25 g | 18.23 g | 18.10 g | 18.01 g | 18.80 g | 18.60 g | 18.17 g | 28.9 h | 42.52% | 49.20% | 46.10% | 44.43% | 48.73% | 46.8% | 109.89 mm^3 | 216.01 mm^3 | 370.15 mm^3 | 596.52 mm^3 | 858.29 mm^3 | tumor volume compared with G1 vehicle on each day [4]: significant smaller tumor volume from day 3 to day 21; tumor weight at the end of the study, in words [4]: lighter tumor but no statistic significance; Tumor volume D17 [4]: 1037.86 mm^3; Tumor volume D21 [4]: 1269.08 mm^3; Tumor weight [4]: 2.10 g; half-life at 1 μM [5]: 1.2 h
3 | C[C@@]1(O)CCC[C@H]1n1c(=O)c(C(F)F)cc2cnc(NC3CCN(S(C)(=O)=O)CC3)nc21 [Comp. 5, (−)-6-(difluoromethyl)-8-((1R,2R)-2-hydroxy-2-methylcyclopentyl)-2-((1-(methylsulfonyl)piperidin-4-yl)amino)pyrido[2,3-d]pyrimidin-7(8H)-one, reference compound] | 52.1 nM | 18.43 g | 18.07 g | 18.12 g | 17.82 g | 18.25 g | 18.48 g | 17.80 g | 33.3 h | 37.46% | 42.30% | 39.66% | 42.80% | 43.13% | 44.1% | 109.77 mm^3 | 225.24 mm^3 | 405.37 mm^3 | 654.51 mm^3 | 880.11 mm^3 | tumor volume compared with G1 vehicle on each day [4]: significant smaller tumor volume from day 7 to day 21; tumor weight at the end of the study, in words [4]: lighter tumor but no statistic significance; Tumor volume D17 [4]: 1139.14 mm^3; Tumor volume D21 [4]: 1327.79 mm^3; Tumor weight [4]: 2.22 g; half-life at 1 μM [5]: 0.367 h
4 | [2H]C(F)(F)c1cc2cnc(NC3CCN(S(C)(=O)=O)CC3)nc2n([C@@H]2CCC[C@@]2(C)O)c1=O [Comp. 28, (−)-6-(difluoromethyl-d)-8-((1R,2R)-2-hydroxy-2-methylcyclopentyl)-2-((1-(methylsulfonyl)piperidin-4-yl)amino)pyrido[2,3-d]pyrimidin-7(8H)-one] | 75 nM | 17.93 g | 17.81 g | 17.78 g | 17.66 g | 17.75 g | 17.84 g | 16.80 g | 14.4 h | 15.44% | 11.52% | 15.19% | 12.60% | 26.69% | 34.01% | 111.13 mm^3 | 267.25 mm^3 | 564.40 mm^3 | 876.82 mm^3 | 1288.11 mm^3 | body weight compared with G1 vehicle [2]: significant lower on day 17; Tumor volume D17 [4]: 1438.12 mm^3; Tumor volume D21 [4]: 1549.07 mm^3; Tumor weight [4]: 2.84 g; half-life at 1 μM [5]: 3.03 h
